From US10758534B2 (Vertex Pharmaceuticals Incorporated, priority 2014, dated 2020)

Target: T1, F508del (Homo sapiens, UniProt P13569, DEL508-508)
T1 construct: expressed in transfected cells
Test: Protocol 1: membrane potential optical assay (FLIPR III, voltage sensing dye), identification of potentiator compounds
Type: cell-based
Details: Table 3, compounds of Table 1
Procedure, shortened: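 NIH 3T3 fibroblasts stably expressing F508del were cultured at 27° C for 24 hrs for temperature correction, then treated with compounds or DMSO and loaded with a voltage-sensing redistribution dye. Forskolin added with a Cl⁻ gradient activated the channel; membrane-potential fluorescence on FLIPR III reported increased gating.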

T1 sequence (P13569 with tags, fused parts or gaps DEL508-508): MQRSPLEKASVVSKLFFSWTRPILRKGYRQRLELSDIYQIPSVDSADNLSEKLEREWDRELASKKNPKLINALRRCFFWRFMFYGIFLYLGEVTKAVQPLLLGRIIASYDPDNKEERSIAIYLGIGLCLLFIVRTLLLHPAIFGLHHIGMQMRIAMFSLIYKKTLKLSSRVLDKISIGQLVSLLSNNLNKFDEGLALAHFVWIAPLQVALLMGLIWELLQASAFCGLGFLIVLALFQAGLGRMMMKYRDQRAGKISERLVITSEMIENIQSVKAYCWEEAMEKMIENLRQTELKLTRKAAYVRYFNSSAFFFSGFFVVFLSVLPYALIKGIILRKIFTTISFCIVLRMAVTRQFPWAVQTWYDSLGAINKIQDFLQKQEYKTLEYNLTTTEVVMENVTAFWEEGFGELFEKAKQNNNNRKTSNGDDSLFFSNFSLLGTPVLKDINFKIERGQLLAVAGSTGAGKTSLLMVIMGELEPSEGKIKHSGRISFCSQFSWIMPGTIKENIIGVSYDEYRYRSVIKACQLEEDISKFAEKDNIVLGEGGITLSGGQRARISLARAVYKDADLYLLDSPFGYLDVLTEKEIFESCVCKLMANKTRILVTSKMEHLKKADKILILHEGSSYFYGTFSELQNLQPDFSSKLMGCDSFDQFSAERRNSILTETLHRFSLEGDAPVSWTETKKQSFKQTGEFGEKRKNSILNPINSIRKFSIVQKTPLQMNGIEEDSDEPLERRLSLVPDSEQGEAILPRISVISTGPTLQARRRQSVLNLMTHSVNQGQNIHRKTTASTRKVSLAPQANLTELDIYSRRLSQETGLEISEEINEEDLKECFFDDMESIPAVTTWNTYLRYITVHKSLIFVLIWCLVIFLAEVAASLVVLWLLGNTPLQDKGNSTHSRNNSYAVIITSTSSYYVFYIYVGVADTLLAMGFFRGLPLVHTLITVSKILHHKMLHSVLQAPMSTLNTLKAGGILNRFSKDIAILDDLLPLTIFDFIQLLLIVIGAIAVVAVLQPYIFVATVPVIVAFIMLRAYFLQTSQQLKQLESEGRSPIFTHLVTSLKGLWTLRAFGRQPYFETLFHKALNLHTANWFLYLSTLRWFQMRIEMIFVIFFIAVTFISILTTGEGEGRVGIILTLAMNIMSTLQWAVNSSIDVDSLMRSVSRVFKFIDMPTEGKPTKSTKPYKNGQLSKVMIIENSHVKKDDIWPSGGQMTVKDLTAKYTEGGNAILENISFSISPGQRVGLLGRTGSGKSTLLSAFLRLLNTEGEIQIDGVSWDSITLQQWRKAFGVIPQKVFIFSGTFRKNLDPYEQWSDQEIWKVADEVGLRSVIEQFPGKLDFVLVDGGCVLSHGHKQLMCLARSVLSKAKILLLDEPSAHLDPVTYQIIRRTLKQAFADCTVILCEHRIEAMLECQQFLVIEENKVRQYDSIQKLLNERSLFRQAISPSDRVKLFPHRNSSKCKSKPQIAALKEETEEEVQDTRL

| Structure (SMILES) | EC30 |
| --- | --- |
| CC(C)COc1cc(F)cc(-c2ccc(C(=O)NS(=O)(=O)c3cccc(N)n3)c(N(C)CC3CC3)n2)c1 [Compound 1010, N-[(6-amino-2-pyridyl)sulfonyl]-2-[cyclopropylmethyl(methyl)amino]-6-(3-fluoro-5-isobutoxy-phenyl)pyridine-3-carboxamide] | +++ (“+++” means <3 uM) |
| Cc1cccc(C)c1Cn1nc(-c2ccc(OC(C)C)cc2)cc1C(=O)NS(=O)(=O)c1ccccc1 [Compound 1478, N-(benzenesulfonyl)-2-[(2,6-dimethylphenyl)methyl]-5-(4-isopropoxyphenyl)pyrazole-3-carboxamide] | +++ (“+++” means <3 uM) |
| C[C@@H]1CN(c2nc(C(C)(C)C)c(/C=C/C3CCCC3)cc2C(=O)NS(=O)(=O)c2cccc(N)n2)C(C)(C)C1 [Compound 1633, N-[(6-amino-2-pyridyl)sulfonyl]-6-tert-butyl-5-[(E)-2-cyclopentylvinyl]-2-[(4S)-2,2,4-trimethylpyrrolidin-1-yl]pyridine-3-carboxamide] | +++ (“+++” means <3 uM) |
| CCOc1cccc2c1CN(Cc1c(C)cc(C)cc1C)[C@@]2(C)C(=O)NS(=O)(=O)c1cccc(N)n1 [Compound 1582, (1R)—N-[(6-amino-2-pyridyl)sulfonyl]-4-ethoxy-1-methyl-2-[(2,4,6-trimethylphenyl)methyl]isoindoline-1-carboxamide] | +++ (“+++” means <3 uM) |
| CC(C)COc1ccccc1-c1cnc(N2CC(C)CC2(C)C)c(C(=O)NS(=O)(=O)c2cccc(N)n2)c1 (stereo not drawn) [Compound 1979, N-[(6-amino-2-pyridyl)sulfonyl]-5-(2-isobutoxyphenyl)-2-(2,2,4-trimethylpyrrolidin-1-yl)pyridine-3-carboxamide] | +++ (“+++” means <3 uM) |

More lines, now with the values ahead:

| EC30 | Structure (SMILES) |
| --- | --- |
| +++ (“+++” means <3 uM) | C[C@@H]1CN(c2nc(C(F)(F)F)ccc2C(=O)NS(=O)(=O)c2cccc(N)n2)C(C)(C)C1 [Compound 1556, N-[(6-amino-2-pyridyl)sulfonyl]-6-(trifluoromethyl)-2-[(4S)-2,2,4-trimethylpyrrolidin-1-yl]pyridine-3-carboxamide] |
| +++ (“+++” means <3 uM) | CC1CN(c2ncccc2C(=O)NS(=O)(=O)c2cccc(Oc3ccc(F)c(Cl)c3)n2)C(C)(C)C1 (stereo not drawn) [Compound 1831, N—[[6-(3-chloro-4-fluoro-phenoxy)-2-pyridyl]sulfonyl]-2-(2,2,4-trimethylpyrrolidin-1-yl)pyridine-3-carboxamide] |
| +++ (“+++” means <3 uM) | CC1CN(c2ncccc2C(=O)NS(=O)(=O)c2cccc(Nc3ccc(C(C)(C)C)cc3)n2)C(C)(C)C1 (stereo not drawn) [Compound 1756, N—[[6-(4-tert-butylanilino)-2-pyridyl]sulfonyl]-2-(2,2,4-trimethylpyrrolidin-1-yl)pyridine-3-carboxamide] |
| +++ (“+++” means <3 uM) | Cc1ccc(-c2ccc(C(=O)NS(=O)(=O)c3cccc(N)n3)c(Oc3c(C)cc(C)cc3C)n2)cc1 [Compound 1035, N-[(6-amino-2-pyridyl)sulfonyl]-6-(p-tolyl)-2-(2,4,6-trimethylphenoxy)pyridine-3-carboxamide] |
| +++ (“+++” means <3 uM) | Cc1cc(C)c(Oc2nc(-c3ccc(C)cc3F)ccc2C(=O)NS(=O)(=O)c2cccc(N)n2)c(C)c1 [Compound 875, N-[(6-amino-2-pyridyl)sulfonyl]-6-(2-fluoro-4-methyl-phenyl)-2-(2,4,6-trimethylphenoxy)pyridine-3-carboxamide] |
| +++ (“+++” means <3 uM) | COc1cccc(-c2cnc(N3CC(C)CC3(C)C)c(C(=O)NS(=O)(=O)c3cccc(N)n3)c2)n1 (stereo not drawn) [Compound 1861, N-[(6-amino-2-pyridyl)sulfonyl]-5-(6-methoxy-2-pyridyl)-2-(2,2,4-trimethylpyrrolidin-1-yl)pyridine-3-carboxamide] |
| +++ (“+++” means <3 uM) | COc1cc(F)c(-c2ccc(C(=O)NS(=O)(=O)c3ccc[nH]c3=O)c(N3C[C@@H](C)CC3(C)C)n2)cc1F [Compound 1913, 6-(2,5-difluoro-4-methoxy-phenyl)-N-[(2-oxo-1H-pyridin-3-yl)sulfonyl]-2-[(4S)-2,2,4-trimethylpyrrolidin-1-yl]pyridine-3-carboxamide] |
